Series [1] is described as follows: pKa of thiol catalysts (Table 3).
The nature of series [2]: Solubility of thiol catalysts at pH 7 (Table 3).

Read-outs that look alike come from different tables or passages of the source.

By pKa is commonly meant the negative logarithm of the acid dissociation constant. Low readings indicate a group that gives up its proton readily, high ones a group that holds its proton tightly.

With `Sc1ccccn1` [2-mercaptopyridine], the “Solubility at pH 7” value was “Soluble”. In addition, the pKa in “physchem” was -1.07.

Consider `Sc1ncccn1` [2-mercaptopyrimidine], for which the “Solubility at pH 7” value is recorded as “Very soluble”. The compound further gave a pKa in the series “physchem” of 2.03.

In the case of `O=C(O)c1cccc(S)c1` [3-mercaptobenzoic acid], the “Solubility at pH 7” value is reported as “Very soluble”. The compound also returned a pKa in “physchem” of 5.78.

Take `Oc1cccc(S)c1` [3-mercaptophenol]: the “Solubility at pH 7” value is recorded as “Very soluble”. Further, the pKa in the series “physchem” came out at 6.5.

On to `Nc1ccc(S)cc1` [4-aminothiophenol], for which the “Solubility at pH 7” value is listed as “Very soluble”. In “physchem”, this compound came in with a pKa of 8.86.

On to `Sc1ccc(Cl)cc1` [4-chlorothiophenol], for which the pKa in series [1] was 6.11. In addition, in series [2], the “Solubility at pH 7” value was “Sparingly soluble”.

For `Oc1ccc(S)cc1` [4-mercaptophenol], the “Solubility at pH 7” value was “Soluble”. The pKa in the series “physchem” turned out to be 6.8.

In the case of `O=C(O)Cc1ccc(S)cc1` [4-mercaptophenylacetic acid], the “Solubility at pH 7” value is listed as “Very soluble”.

Consider `COc1ccc(S)cc1` [4-methoxythiophenol], for which the “Solubility at pH 7” value is “Slightly soluble”. Further, in “physchem”, the pKa was 6.75.

In the case of `Cc1ccc(S)cc1` [4-methylthiophenol], the “Solubility at pH 7” value is “Sparingly soluble”. In addition, the pKa in the series “physchem” turned out to be 6.8.

As for `O=[N+]([O-])c1ccc(S)cc1` [4-nitrothiophenol], the “Solubility at pH 7” value is “Soluble”.

`SCc1ccccc1` [Benzyl mercaptan] had a pKa in series [1] of 9.67. In series [2], the “Solubility at pH 7” value is given as “Sparingly soluble”.

As to `O=S(=O)([O-])CCS.[Na+]` [MESNA, sodium 2-mercaptoethanesulfonate], the “Solubility at pH 7” value is reported as “Very soluble”. In addition, in “physchem”, the pKa worked out at 9.08.

Consider `Sc1ccccc1` [Thiophenol], for which the “Solubility at pH 7” value is listed as “Slightly soluble”.

(Values after patent publication US7674881B2, “Convergent synthesis of proteins by kinetically controlled ligation” (The University of Chicago, priority 2005, dated 2010).)
